Experimental data reported in patent publication US7763588B2, “Method for increasing cognitive function and neurogenesis” (The Salk Institute for Biological Studies, priority 2003, dated 2010).
“Also recorded” adds a separate entry of the source.

How the values were obtained:
female C57BL/6 mice [1] = experiment: Running wheel activity (wheel revolutions); assay type: in vivo; conditions: runners, wheel about 4 hours daily after injection; Mars 20 mg/kg or PBN 30 mg/kg daily; compared with Runner/Saline
Experimental: (§1) Ninety-six female C57BL/6 mice, ten weeks old were purchased from Harlan SD and housed individually with a reversed day/night cycle: lights on at 10 p.m. and off at 10 a.m. The mice were divided into six groups of 16 mice each: Control/Saline (CS) Control/PBN (CP), Control/Mars (CM), Runner/Saline (RS), Runner/PBN (RP) and Runner/Mars (RM). Runners were moved into a cage with a running wheel (Lafayette Instruments) for 4 hours per day, from 10 a.m. to 2 p.m. The mice received daily injections of saline, N-tert-Butyl-phenylnitrone (PBN, 30 mg/kg) or 3′- and 4′-methylated epicatechin 1:1 (Mars, 20 mg/kg). Mice in the running groups were placed in cages with wheels after drug injection for about 4 hours daily.

female C57BL/6 mice [2] = experiment: Morris water maze spatial learning; assay type: in vivo; conditions: Mars 20 mg/kg or PBN 30 mg/kg daily
Experimental: as §1, with “mg/kg).” for “mg/kg). Mice in the running groups were placed in cages with wheels after drug injection for about 4 hours daily.”
(§2) On day 10, 7 animals from each group were given an overdose of anesthetics and perfused transcardially with cold 4% paraformaldehyde in 0.1 M PBS to study the effect of the drugs on cell proliferation. […] On day 38 the remaining mice were perfused.
To assess spatial learning the mice were trained with two trials per day over eight days on the Morris water maze as described by Morris, J. Neurosci. Methods 11: 47-60 (1984), which is incorporated herein by reference in its entirety. The platform was hidden 1 cm below the surface of water, made opaque with white non-toxic paint. The starting points were changed every day. Each trial lasted either until the mouse had found the platform or for a maximum of 40 seconds. All mice were allowed to rest on the platform for 10 seconds at the end of each trial. The latency to the platform, length of swim path and swim speed was recorded semi-automatically by a video tracking system (Ethovision, Noldus).
To assess memory function mice were trained in the water maze for 8 days with 2 trials per day between days 29-36 of the experiment. […] However, when measuring swim speed, there was also a significant difference between the groups (F(5,47)=3.37, p<0.01), raising the possibility that the RM and RP animals performed better due enhanced motor rather than cognitive skills.
To further investigate whether the RM and RP had improved learning, the swimming distance was analyzed for all trials. There was no significant difference between the groups in an overall analysis (F(5,47)=1.55, p=0.19).

dentate gyrus [3] = experiment: Cell survival and neurogenesis in the dentate gyrus (BrdU labeling, day 38); assay type: in vivo; conditions: mice that exercise; Mars 20 mg/kg or PBN 30 mg/kg daily
Experimental: (§3) During the first nine days animals also received daily intraperitoneal BrdU injections (Sigma, St. Louis, Mo.); dissolved in 0.9% NaCl, filtered sterile at 0.2 μm, 50 μg/g body weight at 10 mg/ml) to label dividing cells.
as §2
(§4) To confirm neurogenesis, immunohistochemistry for BrdU was performed on a 1:6 series of free-floating 40-μm coronal sections that were pretreated for BrdU immunohistochemistry by denaturing DNA, as described previously by van Praag et al., Procl. Natl. Acad. Sci. USA 96: 13427-13431 (1999), which is incorporated herein by reference in its entirety. The antibody used was mouse anti-BrdU (Boehringer Mannheim, Indianapolis, Ind.) 1:400. To visualize the BrdU-labeled cells, staining for BrdU with the peroxidase method was used (ABC system, with biotinylated donkey anti-mouse antibodies and diaminobenzadine as chromogen; Vector Laboratories, Burlingame, Calif.). Cells were counted at 40× using an upright brightfield microscope (Olympus).
We are currently processing the tissue of the animals that survived for 38 days to assess the effects of the drugs and exercise on the number of newborn neurons. […]

dentate gyrus [4] = experiment: BrdU-positive cell proliferation in the dentate gyrus (day 10); assay type: in vivo, mice; conditions: runners, Mars 20 mg/kg or PBN 30 mg/kg daily
Experimental: as §3, §2
as §4, with “To visualize the BrdU-labeled cells, staining for BrdU with the peroxidase method was used (ABC system, with biotinylated donkey anti-mouse antibodies and diaminobenzadine as chromogen; Vector Laboratories, Burlingame, Calif.).” left out
BrdU-positive cells were analyzed in mice that were allowed to survive for the first 10 days of the experiment. At this time point cell proliferation, but not neurogenesis can be assessed, since it takes about a month for a newly born cell to become a neuron (van Praag et al., Nature 415: 1030-1034 (2002), which is incorporated herein by reference in its entirety).

CC(C)(C)[N+]([O-])=Cc1ccccc1 [PBN, N-tert-Butyl-phenylnitrone]
number of wheel revolutions (female C57BL/6 mice [1]): no difference between RS and RP | swim speed (female C57BL/6 mice [2]; controls (no running wheel)): no difference between the runners and CP; also recorded: significantly faster than CM | spatial memory performance / learning (female C57BL/6 mice [2]; mice that exercise): enhances spatial memory performance; also recorded: enhanced learning | latency to the platform, analysis of variance per day (female C57BL/6 mice [2]; runners, 8 days of testing): significantly shorter latencies from day 6 onwards | swim speed (female C57BL/6 mice [2]; runners): swam faster than CS and CM animals | neurogenesis (dentate gyrus [3]): enhances neurogenesis | average number of BrdU-labeled cells per section (cell proliferation / cell genesis) (dentate gyrus [4]): the greatest increase; also recorded: more cell genesis in these animals than in all the other groups
